{
  "source": "patent US20230015539A1",
  "about": "“METHOD OF TREATMENT WITH KCNQ CHANNEL OPENERS” (Icahn School of Medicine at Mount Sinai, priority 2019, published 2023)",
  "key": {"ventral striatum (VS)": {"test_system": "ventral striatum (VS)", "experiment": "fMRI during the Incentive Flanker Task: activation to reward anticipation", "type": "in vivo, human", "conditions": "baseline to primary outcome visit; ezogabine compared to placebo; n=40", "description": "Following screening (Day −28 to Day −2), screening data was reviewed by the site PI to determine subject eligibility. Subjects who met all inclusion criteria and none of the exclusion criteria entered into the study. All eligible participants returned to the clinics to complete the baseline assessments and undergo randomization (Day 0, Baseline). Baseline assessments included clinical evaluations, the PRT and fMRI scanning (details below). […] Randomization was balanced by using randomly permuted blocks and stratified by center. […]\nAt each visit, participants completed self-report and clinician-administered rating scales performed by trained raters, and met with a study psychiatrist who assessed suicidal thinking or behavior, adverse events (AE), and changes in concomitant medications. […]\nThe primary outcome measure of the study was a change in activation within the bilateral ventral striatum (VS, FIG. 1) from baseline (Study Visit 0) to the primary outcome visit (Study Visit 5) as measured by functional magnetic resonance imaging (fMRI) during the Incentive Flanker Task (IFT), a variant of the monetary incentive delay task (MID) as described above. […] Additional secondary outcome included change in behavioral symptoms of anhedonia through a computer-based task, the Probabilistic Reward Task (PRT), and global illness improvement and severity evaluated through changes in CGI-I and CGI-S scores. […]"}, "[1]": {"conditions": "human, in vivo; cited from earlier work"}, "[2]": {"test_system": "patients enduring stressful life situations", "experiment": "Example 5: inducing resilience in patients enduring stressful life situations", "type": "in vivo, human", "conditions": "900 mg oral (300 mg TID) daily; example in present tense"}, "[3]": {"test_system": "patients with major depressive disorder (MDD) or persistent depressive disorder (PDD)", "experiment": "Multi-center, double-blind, randomized, placebo-controlled clinical trial of ezogabine (clinical rating scales)", "type": "in vivo, human", "description": "The well-known Montgomery-Asberg Depression Rating Scale (MADRS) is employed to capture change in overall depressive severity. […] The primary clinical outcome is a MADRS subscale composed of items 7 and 8 from the MADRS that capture symptoms of reduced motivation, low energy, and loss of interest or pleasure, which are termed “MADRS”.\nThe Temporal Experience of Pleasure Scale (TEPS) is designed to capture the separate reward processing components of anticipation and consumption, mapping the PVS constructs of AM/reward expectancy and IRRA/SSRA, respectively.\nThe TEPS is an 18-item self-report measurement of anticipatory (10 items) and consummatory (eight items) components of anhedonia which consists of a series of statements that must be rated according to how accurate they are for the individual. The scale differentiates the role of anticipatory pleasure (‘wanting’) from consummatory pleasure (‘liking’). The TEPS-Anticipatory sub-scale is a validated measure of anticipation of reward (higher scores are better); the TEPS-Consummatory sub-scale is a validated measure of response to receipt of reward.\nTwo additional instruments include the Specific Loss of Interest and Pleasure Scale (SLIPS) and the Anticipatory and Consummatory Interpersonal Pleasure Scale (ACIPS) which offer additional unique features, including specificity for anhedonia in the context of depression, and a focus on social aspects of reward.\nThe Quick Inventory of Depressive Symptomatology-Self-Report (QIDS-SR) is a validated self-report of depression.\nThe CGI-S/I will provide an overall clinician-determined summary measure that takes into account all available information, including knowledge of the subject's history, psychosocial circumstances, symptoms, behavior, and the impact of the symptoms on the subject's ability to function. The CGI evaluates the severity of psychopathology from 1 to 7. The CGI-S is a widely administered clinician rated global measure of overall illness severity. Subjects are rated on a 1-7 scale where 1 corresponds to “Normal, Not at All Ill”, 2 is “Borderline Mentally Ill”, the anchor for 3 is “Mildly Ill”, the anchor for 4 is “Moderately Ill”, 5 is “Markedly Ill”, 6 is “Severely Ill”, and 7 is “Among the Most Extremely Ill Patients”. It will be administered at all subject visits. The CGI-I is a widely administered clinician rated global measure of the degree of improvement from the initial assessment in subject overall illness severity. […] It will be administered at all subject visits.\nThe study procedures were conducted at the Icahn School of Medicine at Mount Sinai in New York City and at Baylor College of Medicine in Houston, Tex. Participants were between the ages of 18 and 65 and meet DSM-V criteria for major depressive disorder (MDD) or persistent depressive disorder (PDD, a chronic form of depression), as assessed by a trained rater using the Structured Clinical Interview for Diagnostic and Statistical Manual of Mental Disorders-Fifth Edition Text Revision (DSM-V-TR) Axis I Disorders, Patient Edition (SCID-I/P).\nFollowing screening (Day −28 to Day −2), screening data was reviewed by the site PI to determine subject eligibility. Subjects who met all inclusion criteria and none of the exclusion criteria entered into the study. All eligible participants returned to the clinics to complete the baseline assessments and undergo randomization (Day 0, Baseline). Baseline assessments included clinical evaluations, the PRT and fMRI scanning (details below). […] Randomization was balanced by using randomly permuted blocks and stratified by center. A computer-generated randomization scheme developed by the coordinating site assigned a unique treatment code, which dictated the treatment assignment and matching study drug kit for each subject. The randomization list was provided by the research pharmacist at the coordinating site to the research pharmacist at the collaboration site."}, "[4]": {"test_system": "patients diagnosed with PTSD", "experiment": "Example 4: treatment of patients with PTSD", "type": "in vivo, human", "conditions": "900 mg oral (300 mg TID) daily; example in present tense"}, "P-glycoprotein": {"molecular_target": "P-glycoprotein (Homo sapiens, UniProt P08183)", "sequence (P08183 whole entry)": "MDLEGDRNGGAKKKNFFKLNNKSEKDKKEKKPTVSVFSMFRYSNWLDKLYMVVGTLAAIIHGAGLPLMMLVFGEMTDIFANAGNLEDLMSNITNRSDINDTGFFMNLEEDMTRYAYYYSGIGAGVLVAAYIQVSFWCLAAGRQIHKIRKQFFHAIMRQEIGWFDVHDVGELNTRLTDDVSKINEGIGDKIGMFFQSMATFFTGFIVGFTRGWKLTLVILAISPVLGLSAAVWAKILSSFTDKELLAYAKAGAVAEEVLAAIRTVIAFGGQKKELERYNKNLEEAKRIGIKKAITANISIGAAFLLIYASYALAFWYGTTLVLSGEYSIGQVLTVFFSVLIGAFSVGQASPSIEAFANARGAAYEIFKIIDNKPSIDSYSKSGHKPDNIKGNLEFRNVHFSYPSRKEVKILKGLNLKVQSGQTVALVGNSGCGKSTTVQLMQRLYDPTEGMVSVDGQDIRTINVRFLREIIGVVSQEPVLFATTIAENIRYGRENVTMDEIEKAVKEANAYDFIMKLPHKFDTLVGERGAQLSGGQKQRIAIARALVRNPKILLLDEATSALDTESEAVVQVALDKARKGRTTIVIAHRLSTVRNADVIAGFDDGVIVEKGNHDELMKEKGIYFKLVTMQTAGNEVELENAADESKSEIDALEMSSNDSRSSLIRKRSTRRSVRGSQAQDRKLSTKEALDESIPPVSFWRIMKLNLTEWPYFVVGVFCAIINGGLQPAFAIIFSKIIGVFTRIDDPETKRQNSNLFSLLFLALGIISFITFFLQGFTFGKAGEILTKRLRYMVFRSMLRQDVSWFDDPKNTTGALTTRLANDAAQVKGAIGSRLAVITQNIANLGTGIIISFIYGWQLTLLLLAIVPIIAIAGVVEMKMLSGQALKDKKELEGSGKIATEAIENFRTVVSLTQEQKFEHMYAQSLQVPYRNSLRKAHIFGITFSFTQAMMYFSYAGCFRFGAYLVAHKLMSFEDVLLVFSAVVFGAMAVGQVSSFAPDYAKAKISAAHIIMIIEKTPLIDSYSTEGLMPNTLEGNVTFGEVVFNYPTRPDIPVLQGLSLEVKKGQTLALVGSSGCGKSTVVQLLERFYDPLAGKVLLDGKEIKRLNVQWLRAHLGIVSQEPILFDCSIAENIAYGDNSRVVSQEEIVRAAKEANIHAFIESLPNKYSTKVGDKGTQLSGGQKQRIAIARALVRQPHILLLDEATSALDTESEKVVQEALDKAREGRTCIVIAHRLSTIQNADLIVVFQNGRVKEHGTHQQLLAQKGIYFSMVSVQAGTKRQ", "conditions": "cited from earlier work"}, "[5]": {"test_system": "patients diagnosed with an anxiety disorder", "experiment": "Example 3: treatment of patients with an anxiety disorder", "conditions": "900 mg oral (300 mg TID); example in present tense"}, "[6]": {"test_system": "patients with treatment resistant depression (TRD)", "experiment": "Sub-group analysis of the clinical trial: patients with treatment resistant depression (TRD), MADRS", "source_text": "Treatment resistance is defined as at least one probable treatment failure as captured and by the Antidepressant Treatment form (AHTF)."}},
  "note": "“Also recorded” adds a separate entry of the source.",
  "data": [
    {"smiles": "CCOC(=O)Nc1ccc(NCc2ccc(F)cc2)cc1N", "note": "[ezogabine, N-[2-amino-4-(4-fluorobenzylamino)-phenyl] carbamic acid ethyl ester]", "values": [
      {"measurement": "change in activation to reward anticipation within ventral striatum (fMRI)", "setting": "ventral striatum (VS)", "value": "increased response to reward in the brain"},
      {"measurement": "median time to maximum plasma concentration (Tmax)", "setting": "[1]", "value": "30 to 120", "unit": "min"},
      {"measurement": "metabolism", "setting": "[1]", "value": "extensively metabolized primarily via glucuronidation and acetylation"},
      {"measurement": "resilience: managing emotional health and wellness", "setting": "[2]", "value": "better at managing their emotional health and wellness"},
      {"measurement": "SHAPS scores, Estimate (ezogabine compared to placebo)", "setting": "[3]; anhedonia, n=45, p<0.0001", "value": "−1.55"},
      {"measurement": "mean change from baseline in MADRS score", "setting": "[3]; at the primary outcome visit, ezogabine up to 900 mg/day oral", "value": "5.9±8.8", "unit": "points"},
      {"measurement": "SHAPS, Cohen's d", "setting": "[3]; ezogabine compared to placebo, medium effect size", "value": 0.6},
      {"measurement": "MADRS, Cohen's d", "setting": "[3]; ezogabine compared to placebo, n=45", "value": 0.7},
      {"measurement": "TEPS anticipatory subscale (TEPS-ant), Estimate", "setting": "[3]; ezogabine compared to placebo, n=45, p=0.0008", "value": 1.33},
      {"measurement": "ACIPS, Estimate", "setting": "[3]; ezogabine compared to placebo, p=0.0002", "value": 2.77},
      {"measurement": "SLIPS, Estimate", "setting": "[3]; ezogabine compared to placebo, p=0.0009", "value": "−1.78"},
      {"measurement": "TEPS consummatory subscale (TEPS-con), Estimate", "setting": "[3]; ezogabine compared to placebo, p=0.05", "value": 0.64},
      {"measurement": "effect on anhedonia symptoms", "setting": "[3]; human patients with depression and anhedonia, 300 mg TID oral, 5 weeks, SHAPS", "value": "successfully treated patients suffering from anhedonia; also recorded: reduction in anhedonia and related symptoms"},
      {"measurement": "PTSD symptoms", "setting": "[4]", "value": "alleviated after treatment"},
      {"measurement": "P-glycoprotein active transport", "setting": "P-glycoprotein", "value": "not subject to P-glycoprotein active transport"},
      {"measurement": "symptoms of anxiety", "setting": "[5]", "value": "rapid and sustained alleviation of their symptoms of anxiety"},
      {"measurement": "difference in MADRS change (V5 vs V0): TRD versus non-TRD patients", "setting": "[6]; TRD ezogabine, non-TRD ezogabine and placebo groups, p=0.015", "value": "even larger benefit of treatment compared to placebo in the TRD patients than in the non-TRD patients"},
      {"measurement": "onset of improvement in MADRS scores, ezogabine TRD group", "setting": "[6]; TRD patients, change over time", "value": "significant improvement after a single treatment"},
      {"measurement": "effect of treatment on MADRS in patients with TRD", "setting": "[6]; TRD patients, ezogabine 900 mg/day vs placebo, ANOVA p=0.024", "value": "greatest improvement in their MADRS scores; also recorded: significant effect of treatment; also recorded: beneficial effects compared to placebo"}
    ]}
  ]
}
